Experiments:
MRSA (ATCC 33591) = test: Intracellular and extracellular ATP concentration; format: cell-based, S. aureus
Protocol: The intracellular and extracellular ATP levels refer to the concentration of ATP inside and outside the cell. Under normal physiological conditions, ATP is mainly produced inside the cell and released outside the cell when needed. This dynamic change is very important for maintaining normal biological homeostasis.
Determine the intracellular ATP concentration using the ATP assay kit:
Secondly, the bacterial suspension was treated with different concentrations of compound i, and a blank control group was set up. Next, the samples were incubated at 37° C. and the cells were lysed by ultrasound to extract ATP. After that, the supernatant was collected by high-speed centrifugation and ATP detection was performed, which involved adding the detection solution and compound to a 96-well plate and using a reader to measure the light intensity. Finally, data analysis and statistics were performed to evaluate the effects of the compound by comparing the ATP levels of different treatment groups.

E. coli (ATCC 25922) [1] = test: Cell membrane integrity, propidium iodide staining; format: cell-based
Protocol: The steps for dead cell staining using propidium iodide are as follows:
At the beginning of the experiment, samples were taken from MRSA and E. coli in the logarithmic growth phase, centrifuged at 8000 rpm for 5 minutes and washed twice with 0.85% NaCl solution to remove the culture medium and other possible interfering substances. Afterwards, the bacteria were resuspended in 0.85% NaCl solution and the concentration was adjusted to approximately 1×10^8 CFU/mL.
[…] After incubation, in order to mark and distinguish dead cells, 15 μM propidium iodide solution was added to each sample and incubated in the dark for 15 minutes. PI is a fluorescent dye that binds to DNA and can only penetrate into dead cells with damaged cell membranes.
Finally, the samples were observed using a fluorescence microscope or a confocal laser scanning microscope. By setting the appropriate fluorescence channel (excitation wavelength 535 nm, emission wavelength 617 nm), the red fluorescence emitted by dead cells can be detected. In this way, the effect of compound i on the lethality of bacterial cells can be intuitively evaluated and recorded, providing an experimental basis for further drug research.

E. coli (ATCC 25922) [2] = test: Bacterial cell morphology by FESEM; format: cell-based; conditions: 4 hours
Protocol: Observation of bacterial cell morphology using FESEM:
First, the bacterial suspension was adjusted to OD600=0.5, and then the bacteria were treated with compound i at a final concentration of 1×MIC and 4×MIC at 37° C. for 4 hours, and a control group without compound addition was set up. After treatment, the bacteria were collected by high-speed centrifugation at 6000 rpm for 10 minutes and washed three times with 10 mM PBS buffer to remove residual culture medium and drugs. Subsequently, the bacteria were fixed with 2.5% glutaraldehyde at 4° C. for 12 hours to maintain the integrity of the cell structure, and then washed again with PBS buffer three times to remove excess glutaraldehyde.
Next, the cells were subjected to a series of ethanol dehydration treatments (30%, 50%, 70%, 80%, 90% and 100% ethanol), and the treatment time of each concentration was sufficient to replace the intracellular water. After dehydration, the sample was resuspended in isoamyl acetate for 30 minutes and then centrifuged at 6000 rpm for 10 minutes to remove the supernatant. The sample was then dried and dotted on a stage with conductive glue, gold-plated to enhance the conductivity of the sample, and finally observed using a field emission scanning electron microscope (FESEM) to obtain high-resolution images of bacterial cell morphology and surface morphology. […]

## C=C[C@]1(C)C[C@@H](OC(=O)CSc2nc3cc[n+](Cc4ccc(C)cc4)cc3[nH]2)[C@]2(C)[C@H](C)CC[C@]3(CCC(=O)[C@H]32)[C@@H](C)[C@@H]1O [Compound i, 5-(4-methylbenzyl)-2-((2-(((3aR,4R,5R,7S,8S,9R,9aS,12R)-8-hydroxy-4,7,9,12-tetramethyl-3-oxo-7-vinyldecahydro-4,9a-propancyclopenta[8]cyclo-5-yl)oxy)-2-oxoethyl)thio)-3H-imidazo[4,5-C]pyridine-5-ium]
MRSA (ATCC 33591); 1×MIC
  extracellular fluorescence intensity (ATP) increased by: 3.27 times
  intracellular fluorescence intensity (ATP) decreased by: 51.92%
MRSA (ATCC 33591); 2×MIC
  extracellular fluorescence intensity (ATP) increased by: 2.28 times
  intracellular fluorescence intensity (ATP) decreased by: 74.76%
E. coli (ATCC 25922) [1]; 1×MIC
  cell membrane integrity, propidium iodide red fluorescence: obvious red fluorescence was observed
E. coli (ATCC 25922) [1]; 2×MIC
  cell membrane integrity, propidium iodide red fluorescence: red fluorescence was significantly enhanced
E. coli (ATCC 25922) [2]; 1×MIC
  bacterial cell morphology (FESEM): depressions on the bacterial surface were observed
E. coli (ATCC 25922) [2]; 4×MIC
  bacterial cell morphology (FESEM): obvious wrinkles and shrinkage on the bacterial surface
